Converted amounts (≈) assume the structure as drawn. The source made the active and inactive calls. The rule behind the calls is not given here.
Experiments:
[1] = system: Pseudomonas aeruginosa; assay: Antibacterial activity against Pseudomonas aeruginosa ATCC 9027 assessed as inhibition of visible growth measured after 18 to 24 hrs by broth dilution method; type: functional; details: time 18-24 hrs
[2] = system: Klebsiella pneumoniae; assay: Antibacterial activity against Klebsiella pneumoniae ATCC 10031 assessed as inhibition of visible growth measured after 18 to 24 hrs by broth dilution method; type: functional; details: time 18-24 hrs
[3] = system: Klebsiella pneumoniae; assay: Antibacterial activity against Klebsiella pneumoniae ATCC 14581 assessed as inhibition of visible growth measured after 18 to 24 hrs by broth dilution method; type: functional; details: time 18-24 hrs
[4] = Selectivity ratio, HC50 for hemolytic activity in rabbit RBC to MIC for antibacterial activity against Pseudomonas aeruginosa ATCC 9027; type: toxicity; details: rabbit red blood cells
[5] = Selectivity ratio, HC50 for hemolytic activity in rabbit RBC to MIC for antibacterial activity against Acinetobacter baumannii ATCC 17978; type: toxicity; details: rabbit red blood cells
[6] = system: Staphylococcus aureus; assay: Antibacterial activity against Staphylococcus aureus ATCC 29213 assessed as inhibition of visible growth measured after 18 to 24 hrs in presence of 175.5 ug/ml K+ by broth dilution method; type: functional; details: time 18-24 hrs
[7] = system: Staphylococcus aureus; assay: Antibacterial activity against Staphylococcus aureus ATCC 29213 assessed as inhibition of visible growth measured after 18 to 24 hrs in presence of 24.3 ug/ml Mg2+ by broth dilution method; type: functional; details: time 18-24 hrs
[8] = system: Staphylococcus aureus; assay: Antibacterial activity against methicillin-resistant Staphylococcus aureus N315 assessed as inhibition of visible growth measured after 18 to 24 hrs in presence of 3220 ug/ml Na+ by broth dilution method; type: functional; details: time 18-24 hrs
[9] = system: Staphylococcus aureus; assay: Antibacterial activity against methicillin-resistant Staphylococcus aureus N315 assessed as inhibition of visible growth measured after 18 to 24 hrs in presence of 175.5 ug/ml K+ by broth dilution method; type: functional; details: time 18-24 hrs
[10] = system: Staphylococcus aureus; assay: Antibacterial activity against methicillin-resistant Staphylococcus aureus N315 assessed as inhibition of visible growth measured after 18 to 24 hrs in presence of 100 ug/ml Ca2+ by broth dilution method; type: functional; details: time 18-24 hrs
[11] = system: Staphylococcus aureus; assay: Antibacterial activity against methicillin-resistant Staphylococcus aureus N315 assessed as inhibition of visible growth measured after 18 to 24 hrs in presence of 24.3 ug/ml Mg2+ by broth dilution method; type: functional; details: time 18-24 hrs
[12] = system: Escherichia coli; assay: Antibacterial activity against Escherichia coli […] assessed as inhibition of visible growth measured after 18 to 24 hrs in presence of 100 ug/ml Ca2+ by broth dilution method; type: functional; details: time 18-24 hrs
[13] = system: Staphylococcus aureus; assay: Antibacterial activity against Staphylococcus aureus ATCC 29213 assessed as reduction in bacterial load at 8 time of MIC measured after 8 hrs by time kill assay; type: functional
[14] = system: Escherichia coli; assay: Antibacterial activity against Escherichia coli ATCC 25922 assessed as bacterial regrowth at 8 time of MIC measured after 24 hrs by time kill assay; type: functional, organism-based
[15] = system: Cell membrane; assay: Induction of membrane integrity disruption in Staphylococcus aureus ATCC 29213 assessed as increase fluoresence intensity at 4 to 8 times of MIC measured for 60 mins by SYTOX Green uptake assay; type: subcellular
[16] = system: Cell membrane; assay: Induction of membrane integrity disruption in methicillin-resistant Staphylococcus aureus NCTC 10442 assessed as increase fluoresence intensity at 4 to 8 times of MIC measured for 60 mins by SYTOX Green uptake assay; type: subcellular
[17] = system: Cell membrane; assay: Induction of outer membrane permeability in Escherichia coli ATCC 25922 assessed as increase fluoresence intensity at 4 to 8 times of MIC measured for 60 mins by NPN uptake assay; type: subcellular
[18] = system: Cell membrane; assay: Induction of membrane depolarization in Staphylococcus aureus ATCC 29213 assessed as increase in fluorescence intensity at 4 to 8 times MIC measured for 60 mins by DiSC3(5) dye based fluorescence method; type: subcellular
[19] = system: Cell membrane; assay: Induction of membrane depolarization in Escherichia coli ATCC 25922 assessed as increase in fluorescence intensity at 4 to 8 times MIC measured for 60 mins by DiSC3(5) dye based fluorescence method; type: subcellular
[20] = system: Lipopolysaccharide (LPS); assay: Displacement of BODIPY-TR-cadaverin from Escherichia coli lipopolysaccharide at MIC concentration incubated for 30 mins by fluorescence based analysis
[21] = system: Staphylococcus aureus; assay: Antibacterial activity against Staphylococcus aureus ATCC 29213 assessed as fold increase in MIC measured after 18 to 24 hrs in presence of 512 ug/ml LTA/LPS by broth dilution method; type: functional; details: time 18-24 hrs
[22] = system: Staphylococcus aureus; assay: Inhibition of biofilm formation Staphylococcus aureus ATCC 29213 assessed as decrease in biofilm formation at 0.10 ug/ml measured after 24 hrs by crystal violet staining assay; type: functional
[23] = system: Staphylococcus aureus; assay: Inhibition of biofilm formation Staphylococcus aureus ATCC 29213 assessed as decrease in biofilm formation at 0.20 ug/ml measured after 24 hrs by crystal violet staining assay; type: functional
[24] = system: Staphylococcus aureus; assay: Inhibition of biofilm formation Staphylococcus aureus ATCC 29213 assessed as decrease in biofilm formation at 0.78 ug/ml measured after 24 hrs by crystal violet staining assay; type: functional
[25] = system: Escherichia coli; assay: Inhibition of biofilm formation Escherichia coli ATCC 25922 assessed as decrease in biofilm formation at 0.39 ug/ml measured after 24 hrs by crystal violet staining assay; type: functional
[26] = system: Staphylococcus aureus; assay: Eradication of biofilm in Staphylococcus aureus ATCC 29213 assessed as biofilm viability at 0.20 ug/ml measured after 24 hrs by crystal violet staining assay; type: functional; details: dose 0.2 µg/ml
[27] = system: Staphylococcus aureus; assay: Eradication of biofilm in Staphylococcus aureus ATCC 29213 assessed as biofilm viability at 3.13 ug/ml measured after 24 hrs by crystal violet staining assay; type: functional; details: dose 3.13 µg/ml
[28] = system: Escherichia coli; assay: Eradication of biofilm in Escherichia coli ATCC 25922 assessed as biofilm viability at 0.78 ug/ml measured after 24 hrs by crystal violet staining assay; type: functional; details: dose 0.78 µg/ml
[29] = system: Escherichia coli; assay: Eradication of biofilm in Escherichia coli ATCC 25922 assessed as biofilm viability at […] ug/ml measured after 24 hrs by crystal violet staining assay; type: functional; details: dose […] microg/ml, 1.56 ug/mL
[30] = system: Escherichia coli; assay: Eradication of biofilm in Escherichia coli ATCC 25922 assessed as biofilm viability at 25 ug/ml measured after 24 hrs by crystal violet staining assay; type: functional; details: dose 25 µg/ml
[31] = system: Staphylococcus aureus; assay: Drug resistance development in Staphylococcus aureus ATCC 29213 assessed as fold change in MIC measured after 20 passages; type: functional
[32] = system: Escherichia coli; assay: Drug resistance development in Escherichia coli ATCC 25922 assessed as fold change in MIC measured after 20 passages; type: functional
[33] = Cytotoxicity against mouse NCTC clone 929 cells assessed as cell viability after 24 hrs incubation byCCK-8 assay; type: toxicity, cell-based
[34] = Toxicity in C57BL/6 mouse cornea assessed as toxicity at 5 mg/ml treated topically; type: tissue-based; details: in vivo, topical_or_ocular, route top
[35] = Toxicity in C57BL/6 mouse cornea assessed as corneal damage at 5 mg/ml treated topically; type: tissue-based; details: in vivo, topical_or_ocular, route top
[36] = system: Pseudomonas aeruginosa; assay: In vivo antibacterial activity against Pseudomonas aeruginosa ATCC 9027 infected in C57BL/6 mouse keratitis model assessed as reduction in number of viable bacterial colonies in infected cornea at 5 mg/kg topically 4 times per day for 3 consecutive days; type: functional; details: route top, time 3 day

SMILES: CCCCCCCCC(=O)NCc1ccc(OCCCCCCNC(=N)N)c(OCCCCCCNC(=N)N)c1
- MIC [1]: 6.25 µg/mL (≈ 11.1 µM)
- MIC [2]: 1.56 µg/mL (≈ 2.78 µM)
- MIC [3]: 1.56 µg/mL (≈ 2.78 µM)
- selectivity ratio [4]: 21.6
- selectivity ratio [5]: 21.6
- MIC [6]: 0.39 µg/mL
- MIC [7]: 0.39 µg/mL
- MIC [8]: 0.39 µg/mL
- MIC [9]: 0.39 µg/mL
- MIC [10]: 0.39 µg/mL
- MIC [11]: 0.39 µg/mL
- MIC [12]: 3.12 µg/mL
- Activity [13]: 3.59 log10CFU/ml
- Activity [14]: Active
- Activity [15]: Active
- Activity [16]: Active
- Activity [17]: Dose-Dependent Effect
- Activity [18]: Active
- Activity [19]: Active
- Activity [20]: 56.4%
- fold change (FC) [21]: 8
- inhibition at 0.1 µg/mL [22]: 34.1%
- inhibition at 0.2 µg/mL [23]: 62.3%
- inhibition at 0.78 µg/mL [24]: 99.7%
- inhibition at 0.39 µg/mL [25]: 85.1%
- Activity [26]: 87.32%
- Activity [27]: 14%
- Activity [28]: 90.23%
- Activity [29]: 93.71%
- Activity [30]: 7.05%
- fold change (FC) [31]: <4
- fold change (FC) [32]: <4
- CC50 at 24 h [33]: 35.2 µg/mL (≈ 62.7 µM)
- Activity [34]: Non-Toxic
- Activity [35]: Non-Toxic
- Activity [36]: 4.69 log10CFU/ml
